Data published in the supplement of paper PMC10307832.

What was measured:
Assay in all cases: relative viability (nuclei count vs DMSO), 5 days (fraction); higher = more cells survive
[1] = compound: O=C(O)C(Cc1ccccc1[N+](=O)[O-])=NNc1nc(-c2ccc(Cl)c(Cl)c2)cs1 (mixture of isomers) [4EGI-1] + CC(=O)c1c(C)c2cnc(Nc3ccc(N4CCNCC4)cn3)nc2n(C2CCCC2)c1=O [Palbociclib] (partner 0.5 µM)
In short: (§1)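 Lung cancer cell lines, seeded in 1536-well plates, were treated the following day by pin tool with a single drug or with five library-drug doses (not always all listed) in √10 steps on top of a fixed anchor-drug dose. Cells were fixed and nuclei stained in one step after 5 days, and nuclei were counted. Relative viability is the nuclei count for treated wells divided by that for vehicle wells, reported as medians of duplicate plates.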

[2] = compound: O=C(O)C(Cc1ccccc1[N+](=O)[O-])=NNc1nc(-c2ccc(Cl)c(Cl)c2)cs1 (mixture of isomers) [4EGI-1] + NC(=O)Nc1cc(-c2cccc(F)c2)sc1C(=O)N[C@H]1CCCNC1 [AZD7762] (partner 0.2 µM)
In short: as §1

[3] = compound: CN1CCN(CC1)C2=CC(=C(C=C2)NC3=NC=C4C(=N3)N(C5=CC=CC=C5C(=O)N4C)C)OC [XMD8-85] + Cc1nc(NC(=O)N2CCC[C@H]2C(N)=O)sc1-c1ccnc(C(C)(C)C(F)(F)F)c1 [Alpelisib] (partner 2 µM)
In short: as §1

[4] = compound: O=C(O)C(Cc1ccccc1[N+](=O)[O-])=NNc1nc(-c2ccc(Cl)c(Cl)c2)cs1 (mixture of isomers) [4EGI-1] + CC(C)C[C@H](NC(=O)[C@H](Cc1ccccc1)NC(=O)c1cnccn1)B(O)O [Bortezomib] (partner 0.002 µM)
In short: as §1

Row | Cell Line | relative viability ([1]; first compound 0.5 µM) | relative viability ([1]; first compound 1.581 µM) | relative viability ([1]; first compound 5 µM) | relative viability ([1]; first compound 15.81 µM) | relative viability ([1]; first compound 50 µM) | relative viability ([2]; first compound 0.5 µM) | relative viability ([2]; first compound 1.581 µM) | relative viability ([2]; first compound 5 µM) | relative viability ([2]; first compound 15.81 µM) | relative viability ([2]; first compound 50 µM) | relative viability ([3]; first compound 0.253 µM) | relative viability ([3]; first compound 0.8 µM) | relative viability ([3]; first compound 2.53 µM) | relative viability ([3]; first compound 8 µM) | relative viability ([4]; first compound 0.5 µM) | relative viability ([4]; first compound 1.581 µM) | relative viability ([4]; first compound 5 µM) | relative viability ([4]; first compound 15.81 µM) | relative viability ([4]; first compound 50 µM) | relative viability ([3]; first compound 0.08 µM)
1 | NCI-H522 | 1.07 | 0.822 | 1.2 | 1.08 | 0.953 | 0.947 | 0.71 | 0.985 | 0.874 | 0.783 | – | – | – | – | – | – | – | – | – | –
2 | NCI-H596 | – | – | – | – | – | 1.07 | 1.21 | 1.31 | 0.769 | 0.279 | 0.558 | 0.511 | 0.411 | 0.403 | 1 | 0.932 | 1.05 | 0.986 | 0.789 | –
3 | NCI-H661 | 0.454 | 0.413 | 0.385 | 0.31 | 0.284 | – | – | – | – | – | 0.596 | 0.551 | 0.819 | 0.552 | 1.13 | 0.752 | 0.877 | 0.55 | 0.464 | –
4 | NCI-H1299 | – | – | – | – | – | – | – | – | – | – | 0.948 | 1.08 | 1.07 | 0.874 | 1.02 | 1.04 | 0.993 | 0.997 | 1.02 | 1.15
5 | NCI-H1395 | 0.697 | – | 0.634 | 0.594 | 0.485 | 0.44 | – | 0.393 | 0.344 | 0.374 | 0.907 | 0.933 | 0.965 | 1.08 | – | – | – | – | – | 0.927
6 | NCI-H1563 | – | – | – | – | – | – | – | – | – | – | 0.967 | 0.882 | 0.814 | 0.709 | 0.895 | 0.728 | 0.847 | 0.818 | 0.468 | 1.04
7 | NCI-H1648 | 0.271 | 0.232 | 0.314 | 0.275 | 0.253 | 0.662 | 0.674 | 0.707 | 0.602 | 0.517 | – | – | – | – | – | – | – | – | – | –
8 | NCI-H1650 | 0.417 | – | 0.331 | 0.255 | 0.141 | – | – | – | – | – | – | – | – | – | 0.197 | – | 0.219 | 0.216 | 0.189 | –
9 | NCI-H1703 | – | – | – | – | – | 0.121 | 0.131 | 0.147 | 0.12 | 0.119 | 0.433 | 0.337 | 0.401 | 0.265 | 0.403 | 0.363 | 0.446 | 0.365 | 0.201 | 0.305
10 | NCI-H1793 | 0.339 | 0.333 | 0.329 | 0.235 | 0.205 | 0.766 | 0.41 | 0.809 | 0.276 | 0.218 | 0.769 | 0.666 | 0.851 | 0.668 | – | – | – | – | – | 0.914
11 | NCI-H1944 | 0.404 | – | 0.33 | 0.273 | 0.252 | 0.626 | – | 0.604 | 0.453 | 0.212 | 0.791 | 0.847 | 0.977 | 0.746 | – | – | – | – | – | 0.815
12 | NCI-H2009 | 0.251 | 0.243 | 0.224 | 0.196 | 0.149 | – | – | – | – | – | 1.03 | 1.14 | 1.03 | 0.586 | 1.2 | 0.954 | 1.19 | 0.944 | 0.186 | 1.17
13 | NCI-H2023 | 0.358 | – | 0.483 | 0.245 | 0.0543 | – | – | – | – | – | 0.623 | 0.66 | 0.664 | 0.334 | 1.53 | – | 1.23 | 0.309 | 0.101 | 0.488
14 | NCI-H2170 | 0.423 | 0.363 | 0.382 | 0.392 | 0.273 | 0.923 | 0.806 | 1.03 | 0.697 | 0.244 | 0.812 | – | 0.816 | 0.495 | – | – | – | – | – | 0.759
15 | NCI-H2228 | 1.22 | 0.708 | 0.785 | 0.787 | 0.314 | – | – | – | – | – | 0.724 | 0.78 | 0.891 | 0.488 | 1.25 | 0.952 | 1.05 | 0.599 | 0.252 | –
16 | NCI-H2342 | 0.506 | 0.547 | 0.582 | 0.59 | 0.539 | 0.441 | 0.477 | 0.501 | 0.559 | 0.308 | – | – | – | – | – | – | – | – | – | –
17 | SK-LU-1 | 0.439 | 0.44 | 0.414 | 0.386 | 0.289 | – | – | – | – | – | 1.07 | 1.08 | 1.01 | 0.855 | 1.18 | – | 1.36 | 1.53 | 0.913 | 0.924
18 | SK-MES-1 | 0.354 | 0.27 | 0.336 | 0.288 | 0.18 | – | – | – | – | – | 0.654 | 1.03 | 1.02 | – | – | – | – | – | – | 0.769
19 | SW 900 | 0.552 | 0.573 | 0.69 | 0.395 | 0.234 | 0.833 | 0.583 | 0.574 | 0.377 | 0.173 | – | – | – | – | – | – | – | – | – | –
20 | SW 1573 | 0.417 | 0.354 | 0.47 | 0.257 | 0.119 | – | – | – | – | – | 0.596 | 0.745 | 0.615 | 0.663 | 1.4 | 1.06 | 0.972 | 0.948 | 0.822 | 0.917
21 | UMC-11 | 0.345 | 0.34 | 0.378 | 0.365 | 0.305 | – | – | – | – | – | 0.931 | 1 | 0.939 | 0.387 | 1.04 | 0.872 | 0.669 | 0.679 | 0.255 | 0.954
